Reference: patent publication US20130096067A1, “DROSOPHILA TUMOR STEM CELL MODEL AND USES THEREOF” (priority 2011, published 2013)
Structures can show the parent of a compound that is named as a salt. Numbered stars: 1 amine (or outer) side, 2 acyl side, 3 side chain; on linkers, the order of the positions; unused ones are H or OH. Bridge positions count the residues as written; N and C are the ends. Square brackets hold non-standard residues; d marks the D form. Peptide text beside a SMILES is read from it. I, II: the chains in the order shown. Actinocin(9to1) = Cc1c2oc3c(C)ccc(C(=O)[*:1])c3nc-2c(C(=O)[*:2])c(N)c1=O; NMeV = CN[C@H](C(=O)O)C(C)C; Sar = CNCC(=O)O

Columns and labels:
[1] = tested on: Raf-1^gof intestinal tumors; assay: Luciferase screen of FDA-approved (NCI) drugs in 96-well plates, flies with Raf-1^gof intestinal tumors; type: in vivo, Drosophila; details: for Avg (3 + 6): average of Day 3 and Day 6 fold; for Day 6 Fold: six-day protocol: single dose for three days, then another dose for three more days; on Avg (3 + 6): test concentration or dose not given here; on Log2 (fold): test concentration or dose not given here
[2] = tested on: Raf-1^gof intestinal tumors; details: for Log2 (fold) (luciferase activity, log2 of the fold difference relative to DMSO controls) / Fold (luciferase activity, fold difference relative to DMSO controls): screen of 480 ICCB compounds in vials, compounds fed to flies with one-day old Raf-1^gof tumors, assessed three days later, esg-Gal4 luciferase; for Fold (luciferase activity, fold difference relative to DMSO controls): averaged from multiple wells; for Fold: Table 3 summary of hits, Screen ICCB, luciferase relative to DMSO, fed three consecutive days in vials; on Fold (luciferase activity, fold difference relative to DMSO controls): test concentration or dose not given here; on Log2 (fold) (luciferase activity, log2 of the fold difference relative to DMSO controls): test concentration or dose not given here
[3] = log2 of the Day 3 fold difference in luciferase relative to DMSO controls
[4] = luciferase activity relative to DMSO controls, single dose of drug for three days, 96-well plates

In the case of `COc1cc([C@@H]2c3cc4c(cc3[C@@H](O[C@@H]3O[C@@H]5CO[C@@H](C)O[C@H]5[C@H](O)[C@H]3O)[C@H]3COC(=O)[C@H]23)OCO4)cc(OC)c1O` [Etoposide], the “Avg (3 + 6)” value [1] is reported as 0.817 fold, the “Log2 (fold)” value [1, 3] is reported as −0.134 and the “Day 3 Fold” value [1, 4] is reported as 0.911 fold. For the same compound, the “Day 6 Fold” value [1] was 0.722 fold, the “Log2 (fold) (luciferase activity, log2 of the fold difference relative to DMSO controls)” value [2] was −0.532 and the “Fold (luciferase activity, fold difference relative to DMSO controls)” value [2] was 0.691.

`O=C1CCC(N2C(=O)c3ccccc3C2=O)C(=O)N1` (centres unmarked) [Thalidomide] was tested, and the “Avg (3 + 6)” value [1] was 1.008 fold, the “Log2 (fold)” value [1, 3] was 0.136 and the “Day 3 Fold” value [1, 4] was 1.099 fold. For the same compound, the “Day 6 Fold” value [1] was 0.918 fold, the “Log2 (fold) (luciferase activity, log2 of the fold difference relative to DMSO controls)” value [2] was −0.252 and the “Fold (luciferase activity, fold difference relative to DMSO controls)” value [2] was 0.839.

With `CO[C@@]12[C@H](COC(N)=O)C3=C(C(=O)C(C)=C(N)C3=O)N1C[C@@H]1N[C@@H]12` [Mitomycin C] the “Avg (3 + 6)” value [1] was 0.204 fold, the “Day 3 Fold” value ([1]; po, 72 h) was 0.279 fold and the “Log2 (fold)” value ([1]; po, 72 h) was −1.842. For the same compound, the Fold [2] was 0.470 fold, the “Log2 (fold) (luciferase activity, log2 of the fold difference relative to DMSO controls)” value [2] was −1.088 and the “Fold (luciferase activity, fold difference relative to DMSO controls)” value [2] was 0.470.

With `CO[C@H]1C[C@@H]2CC[C@@H](C)[C@@](O)(O2)C(=O)C(=O)N2CCCC[C@H]2C(=O)O[C@H]([C@H](C)C[C@@H]2CC[C@@H](O)[C@H](OC)C2)CC(=O)[C@H](C)/C=C(\C)[C@@H](O)[C@@H](OC)C(=O)[C@H](C)C[C@H](C)/C=C/C=C/C=C/1C` [Rapamycin] the “Avg (3 + 6)” value [1] was 0.369 fold, the “Log2 (fold)” value [1, 3] was −1.216 and the “Day 3 Fold” value [1, 4] was 0.431 fold. The “Day 6 Fold” value [1] was 0.308 fold, the Fold [2] was 0.429 fold and the “Log2 (fold) (luciferase activity, log2 of the fold difference relative to DMSO controls)” value [2] was −1.220. The “Fold (luciferase activity, fold difference relative to DMSO controls)” value [2] was 0.429.

For `Cc1c2oc3c(C)ccc(C(=O)N[C@@H]4C(=O)N[C@H](C(C)C)C(=O)N5CCC[C@H]5C(=O)N(C)CC(=O)N(C)[C@@H](C(C)C)C(=O)O[C@@H]4C)c3nc-2c(C(=O)N[C@@H]2C(=O)N[C@H](C(C)C)C(=O)N3CCC[C@H]3C(=O)N(C)CC(=O)N(C)[C@@H](C(C)C)C(=O)O[C@@H]2C)c(N)c1=O` [Dactinomycin] (I: T[dV]P[Sar][NMeV] / II: T[dV]P[Sar][NMeV]; ester I:1-I:C, II:1-II:C; linker I:N-II:N via Actinocin(9to1)), the “Avg (3 + 6)” value [1] was 0.119 fold, the “Log2 (fold)” value [1, 3] was −3.068 and the “Day 3 Fold” value [1, 4] was 0.119 fold. For the same compound, the Fold [2] was 0.438 fold, the “Log2 (fold) (luciferase activity, log2 of the fold difference relative to DMSO controls)” value [2] was −1.192 and the “Fold (luciferase activity, fold difference relative to DMSO controls)” value [2] was 0.438.

In the case of `O=C(c1ccc(OCCN2CCCCC2)cc1)c1c(-c2ccc(O)cc2)sc2cc(O)ccc12` [Raloxifene HCl], the “Avg (3 + 6)” value [1] is reported as 1.100 fold, the “Log2 (fold)” value [1, 3] is reported as 0.337 and the “Day 3 Fold” value [1, 4] is reported as 1.263 fold. For the same compound, the “Day 6 Fold” value [1] was 0.936 fold.

In the case of `NC(=O)NO` [Hydroxyurea], the “Avg (3 + 6)” value [1] is reported as 0.990 fold, the “Log2 (fold)” value [1, 3] is reported as −0.184 and the “Day 3 Fold” value [1, 4] is reported as 0.880 fold. The “Day 6 Fold” value [1] was 1.099 fold.

In the case of `CC[C@@]1(O)C(=O)OCc2c1cc1n(c2=O)Cc2cc3c(CN(C)C)c(O)ccc3nc2-1` [Topotecan HCl], the “Avg (3 + 6)” value [1] is reported as 0.233 fold, the “Log2 (fold)” value [1, 3] is reported as −1.600 and the “Day 3 Fold” value [1, 4] is reported as 0.330 fold. For the same compound, the “Day 6 Fold” value [1] was 0.137 fold.

With `Nc1ccn([C@@H]2O[C@H](CO)[C@@H](O)[C@@H]2O)c(=O)n1` [Cytarabine HCl] the “Avg (3 + 6)” value [1] was 1.112 fold, the “Log2 (fold)” value [1, 3] was 0.100 and the “Day 3 Fold” value [1, 4] was 1.072 fold. The “Day 6 Fold” value [1] was 1.153 fold.

With `O=C1[O][Pt]2([NH][C@@H]3CCCC[C@H]3[NH]2)[O]C1=O` [Oxaliplatin] the “Avg (3 + 6)” value [1] was 1.082 fold, the “Log2 (fold)” value [1, 3] was 0.296 and the “Day 3 Fold” value [1, 4] was 1.227 fold. For the same compound, the “Day 6 Fold” value [1] was 0.936 fold.

With `CC[C@]1(O)C[C@H]2CN(CCc3c([nH]c4ccccc34)[C@@](C(=O)OC)(c3cc4c(cc3OC)N(C=O)[C@H]3[C@@](O)(C(=O)OC)[C@H](OC(C)=O)[C@]5(CC)C=CCN6CC[C@]43[C@@H]65)C2)C1` [Vincristine sulfate] the “Avg (3 + 6)” value [1] was 0.314 fold, the “Log2 (fold)” value [1, 3] was −2.100 and the “Day 3 Fold” value [1, 4] was 0.233 fold. For the same compound, the “Day 6 Fold” value [1] was 0.394 fold.

With `Nc1ccn([C@@H]2O[C@H](CO)[C@@H](O)C2(F)F)c(=O)n1` [Gemcitabine HCl] the “Avg (3 + 6)” value [1] was 0.104 fold, the “Log2 (fold)” value [1, 3] was −2.666 and the “Day 3 Fold” value [1, 4] was 0.158 fold. For the same compound, the “Day 6 Fold” value [1] was 0.051 fold.

For `N.N.O=C([O-])C1(C(=O)[O-])CCC1.[Pt+2]` [Carboplatin], the “Avg (3 + 6)” value [1] was 1.159 fold, the “Log2 (fold)” value [1, 3] was 0.059 and the “Day 3 Fold” value [1, 4] was 1.042 fold. For the same compound, the “Day 6 Fold” value [1] was 1.276 fold.

For `CC1=C(/C=C/C(C)=C/C=C/C(C)=C/C(=O)O)C(C)(C)CCC1` [Tretinoin], the “Avg (3 + 6)” value [1] was 0.871 fold, the “Log2 (fold)” value [1, 3] was −0.040 and the “Day 3 Fold” value [1, 4] was 0.972 fold. For the same compound, the “Day 6 Fold” value [1] was 0.769 fold.

In the case of `Nc1nc2nc[nH]c2c(=S)[nH]1` [Thioguanine], the “Avg (3 + 6)” value [1] is reported as 1.392 fold, the “Log2 (fold)” value [1, 3] is reported as 0.495 and the “Day 3 Fold” value [1, 4] is reported as 1.409 fold. The “Day 6 Fold” value [1] was 1.375 fold.

With `Cc1cn(-c2cc(NC(=O)c3ccc(C)c(Nc4nccc(-c5cccnc5)n4)c3)cc(C(F)(F)F)c2)cn1` [Nilotinib] the “Avg (3 + 6)” value [1] was 0.804 fold, the “Log2 (fold)” value [1, 3] was −0.615 and the “Day 3 Fold” value [1, 4] was 0.653 fold. For the same compound, the “Day 6 Fold” value [1] was 0.956 fold.

In the case of `CS(=O)(=O)CCNCc1ccc(-c2ccc3ncnc(Nc4ccc(OCc5cccc(F)c5)c(Cl)c4)c3c2)o1` [Lapatinib], the “Avg (3 + 6)” value [1] is reported as 0.976 fold, the “Log2 (fold)” value [1, 3] is reported as −0.097 and the “Day 3 Fold” value [1, 4] is reported as 0.935 fold. The “Day 6 Fold” value [1] was 1.017 fold.

In the case of `CC[C@]1(O)C[C@@H]2CN(CCc3c([nH]c4ccccc34)[C@@](C(=O)OC)(c3cc4c(cc3OC)N(C)[C@H]3[C@@](O)(C(=O)OC)[C@H](OC(C)=O)[C@]5(CC)C=CCN6CC[C@]43[C@@H]65)C2)C1` [Vinblastine sulfate], the “Avg (3 + 6)” value [1] is reported as 0.158 fold, the “Log2 (fold)” value [1, 3] is reported as −2.445 and the “Day 3 Fold” value [1, 4] is reported as 0.184 fold. For the same compound, the “Day 6 Fold” value [1] was 0.131 fold, the Fold [2] was 0.204 fold and the “Log2 (fold) (luciferase activity, log2 of the fold difference relative to DMSO controls)” value [2] was −2.290. For the same compound, the “Fold (luciferase activity, fold difference relative to DMSO controls)” value [2] was 0.204.

`COc1cccc2c1C(=O)c1c(O)c3c(c(O)c1C2=O)C[C@@](O)(C(C)=O)C[C@@H]3O[C@H]1C[C@H](N)[C@H](O)[C@H](C)O1` [Daunorubicin HCl] was tested, and the “Avg (3 + 6)” value [1] was 0.227 fold, the “Log2 (fold)” value [1, 3] was −1.484 and the “Day 3 Fold” value [1, 4] was 0.358 fold. The “Day 6 Fold” value [1] was 0.096 fold.

With `CS(=O)(=O)OCCCCOS(C)(=O)=O` [Busulfan] the “Avg (3 + 6)” value [1] was 0.936 fold, the “Log2 (fold)” value [1, 3] was 0.166 and the “Day 3 Fold” value [1, 4] was 1.122 fold. The “Day 6 Fold” value [1] was 0.750 fold.

In the case of `CN(C)/N=N/c1[nH]cnc1C(N)=O` [Dacarbazine], the “Avg (3 + 6)” value [1] is reported as 0.960 fold, the “Log2 (fold)” value [1, 3] is reported as −0.010 and the “Day 3 Fold” value [1, 4] is reported as 0.993 fold. For the same compound, the “Day 6 Fold” value [1] was 0.927 fold.

For `CC/C(=C(\c1ccccc1)c1ccc(OCCN(C)C)cc1)c1ccccc1` [Tamoxifen citrate], the “Avg (3 + 6)” value [1] was 0.919 fold, the “Log2 (fold)” value [1, 3] was −0.046 and the “Day 3 Fold” value [1, 4] was 0.968 fold. The “Day 6 Fold” value [1] was 0.869 fold.

With `CCN(CC)CCNC(=O)c1c(C)[nH]c(/C=C2\C(=O)Nc3ccc(F)cc32)c1C` [Sunitinib] the “Avg (3 + 6)” value [1] was 0.816 fold, the “Log2 (fold)” value [1, 3] was −0.243 and the “Day 3 Fold” value [1, 4] was 0.845 fold. For the same compound, the “Day 6 Fold” value [1] was 0.788 fold.

`CN(C)c1nc(N(C)C)nc(N(C)C)n1` [Altretamine] was tested, and the “Avg (3 + 6)” value [1] was 0.611 fold, the “Log2 (fold)” value [1, 3] was −0.625 and the “Day 3 Fold” value [1, 4] was 0.649 fold. The “Day 6 Fold” value [1] was 0.574 fold.
